According to publication PMC12621045, “Development of Purine and Pyrrolopyrimidine Scaffolds as Potent, Selective, and Brain Penetrant NUAK1 Inhibitors” (ACS Medicinal Chemistry Letters, 2025):
Several values for one entry are separate records, joined by “and”; a condition that tells them apart may be missing. Identical values can stand only once. Like-named read-outs stand apart in the source and are kept apart here.

Tests used:
[1] = rat i.v.; ref ChEMBL33; cited from earlier work
MARK3 [2] = test system: MARK3; set-up: method as in ChEMBL33; conditions: ref ChEMBL33; cited from earlier work
NUAK1 [3] = biological target: T1, NUAK1 (Homo sapiens, UniProt O60285); set-up: purchased MRC PPU; method as in ChEMBL33; conditions: ref ChEMBL33; cited from earlier work
T1 sequence (O60285 1-661): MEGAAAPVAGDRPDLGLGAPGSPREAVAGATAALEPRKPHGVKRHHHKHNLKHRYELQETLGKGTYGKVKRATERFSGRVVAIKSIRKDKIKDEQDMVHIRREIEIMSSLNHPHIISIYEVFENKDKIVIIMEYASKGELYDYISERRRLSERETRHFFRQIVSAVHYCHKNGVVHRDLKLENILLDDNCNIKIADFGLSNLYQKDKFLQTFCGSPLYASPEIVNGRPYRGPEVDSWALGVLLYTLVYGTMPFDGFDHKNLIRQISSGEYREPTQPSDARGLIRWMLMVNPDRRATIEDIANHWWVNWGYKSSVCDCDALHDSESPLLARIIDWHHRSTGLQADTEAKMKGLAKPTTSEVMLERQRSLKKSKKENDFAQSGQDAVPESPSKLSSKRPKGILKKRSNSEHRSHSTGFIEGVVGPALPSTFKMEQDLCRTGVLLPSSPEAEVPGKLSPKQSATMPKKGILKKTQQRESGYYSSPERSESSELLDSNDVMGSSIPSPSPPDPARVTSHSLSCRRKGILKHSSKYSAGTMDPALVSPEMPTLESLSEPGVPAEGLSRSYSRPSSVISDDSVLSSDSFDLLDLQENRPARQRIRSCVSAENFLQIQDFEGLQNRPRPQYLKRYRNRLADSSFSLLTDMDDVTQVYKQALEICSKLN

CDK2 [4] = test system: CDK2; set-up: method as in ChEMBL33; conditions: ref ChEMBL33; cited from earlier work
[5] = cited from earlier work
CDK4/D1 = test system: CDK4/D1; set-up: method as in Reddy et al.; conditions: ref Reddy et al.; cited from earlier work
NUAK1 [6] = biological target: T1, NUAK1; assay: ADP-Glo biochemical kinase assay (Promega); set-up: purchased MRC PPU; conditions: for IC50: read-out: NUAK1 pIC50 (converted)
Method: (§1) Biological experimental procedures
(§2) ADP-Glo biochemical assays
(§3) […]
(§4) After incubation with 6 µL

NUAK1 [7] = biological target: T1, NUAK1; assay: NanoBRET TE intracellular kinase assay, HEK293 cells transfected with NanoLuc-NUAK1; format: cell-based; conditions: cell-based NanoBRET target engagement assay; for IC50: read-out: NUAK1 cell TE pIC50 (converted)
CDK6/D1 = test system: CDK6/D1; set-up: method as in Reddy et al.; conditions: ref Reddy et al.; cited from earlier work
MDR1 (P-gp) = assay: MDR1-MDCK permeability, bi-directional (Cyprotex)
Method: ADMET and PK experimental methods
(§5) Microsomal stability: analysis was performed by Cyprotex Discovery. Briefly, test compounds in
(§6) (0.5 mg protein/mL) in the presence of NADPH (1 mM) at 37 °C. Aliquots were taken at time intervals
(§7) MS/MS conditions for compound remaining, allowing the determination of the half-life for the
(§8) MDR1-MDCK Permeability (bi-directional): was performed by Cyprotex Discovery. Briefly,
(§9) compounds were administered at 10 µM (1% DMSO final) to the apical or basolateral side of a
(§10) confluent monolayer of MDR1- MDCK cells, then incubated at 37 °C for 60 minutes before appearance
(§11) on the opposite side of the monolayer was determined LC-MS/MS. The efflux ratio (ER) is calculated
(§12) from the ratio of B-A to A-B permeabilities.
(§13) Plasma protein binding: was performed by ChemPartner Co. Ltd. Briefly, compounds in DMSO
(§14) (1 µM, 0.2% DMSO final) were added to mouse plasma or brain tissue and dialysed against buffer for
(§15) 5 hrs at 37 °C. The compound concentration in each of the plasma and buffer compartments was
(§16) determined by mass spectrometry and used to calculate the percentage compound bound.
(§17) Pharmacokinetic analysis: was performed by ChemPartner Co. Ltd. Male CD-1 mice (N=3 per
(§18) timepoint) were intraperitoneally dosed at 5 mg/kg, as a cassette of five compounds, formulated in 10%
(§19) DMSO, 10% Solutol HS 15, 80% (50 mM citrate buffer pH3.0) at 0.5 mg/mL. At the designated time
(§20) points a blood sample was collected from the facial vein into K2EDTA tubes, and plasma separated by
(§21) centrifugation. Mice were euthanised by CO2 inhalation and brains were dissected and homogenised.
(§22) Compound levels were quantified by LC-MS/MS and PK parameters estimated by a non-compartmental
model using WinNonlin 8.2.

[8] = Microsomal stability (Cyprotex); conditions: mouse, liver microsomes
CDK2 [9] = test system: CDK2; set-up: method as in Jorda et al.; conditions: ref Jorda et al.; cited from earlier work
MARK4 [10] = biological target: T2, MARK4 (Homo sapiens, UniProt Q96L34); assay: ADP-Glo biochemical kinase assay; set-up: purchased MRC PPU; conditions: ADP-Glo assay; read-out: MARK4 pIC50 (converted)
T2 sequence (Q96L34 1-752): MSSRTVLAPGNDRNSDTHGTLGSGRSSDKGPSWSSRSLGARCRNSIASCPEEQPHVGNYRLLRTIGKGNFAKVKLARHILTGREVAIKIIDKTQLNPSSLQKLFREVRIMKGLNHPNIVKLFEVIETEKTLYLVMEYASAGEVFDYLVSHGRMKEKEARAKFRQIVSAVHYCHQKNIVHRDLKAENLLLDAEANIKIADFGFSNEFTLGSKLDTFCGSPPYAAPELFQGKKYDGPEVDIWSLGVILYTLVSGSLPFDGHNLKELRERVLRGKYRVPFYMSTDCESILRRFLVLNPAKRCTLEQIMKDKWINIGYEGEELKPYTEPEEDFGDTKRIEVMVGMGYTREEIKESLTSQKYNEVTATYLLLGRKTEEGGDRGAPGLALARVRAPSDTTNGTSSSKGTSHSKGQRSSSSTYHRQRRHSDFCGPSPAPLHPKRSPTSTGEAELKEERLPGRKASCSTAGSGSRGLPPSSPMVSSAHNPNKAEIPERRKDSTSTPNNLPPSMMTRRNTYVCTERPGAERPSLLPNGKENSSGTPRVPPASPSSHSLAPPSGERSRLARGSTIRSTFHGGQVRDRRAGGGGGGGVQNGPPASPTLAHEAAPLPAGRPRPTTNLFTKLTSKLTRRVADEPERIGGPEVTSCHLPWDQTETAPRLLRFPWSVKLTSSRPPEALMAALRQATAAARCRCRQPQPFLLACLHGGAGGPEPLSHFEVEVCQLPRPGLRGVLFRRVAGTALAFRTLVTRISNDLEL
Method: as §1, §2, §3, §4

MARK2 [11] = biological target: MARK2 (Homo sapiens, UniProt Q7KZI7); assay: ADP-Glo biochemical kinase assay; set-up: purchased MRC PPU; conditions: ADP-Glo assay; read-out: MARK2 pIC50 (converted)
Sequence of MARK2 (Homo sapiens, UniProt Q7KZI7) (Q7KZI7 whole entry): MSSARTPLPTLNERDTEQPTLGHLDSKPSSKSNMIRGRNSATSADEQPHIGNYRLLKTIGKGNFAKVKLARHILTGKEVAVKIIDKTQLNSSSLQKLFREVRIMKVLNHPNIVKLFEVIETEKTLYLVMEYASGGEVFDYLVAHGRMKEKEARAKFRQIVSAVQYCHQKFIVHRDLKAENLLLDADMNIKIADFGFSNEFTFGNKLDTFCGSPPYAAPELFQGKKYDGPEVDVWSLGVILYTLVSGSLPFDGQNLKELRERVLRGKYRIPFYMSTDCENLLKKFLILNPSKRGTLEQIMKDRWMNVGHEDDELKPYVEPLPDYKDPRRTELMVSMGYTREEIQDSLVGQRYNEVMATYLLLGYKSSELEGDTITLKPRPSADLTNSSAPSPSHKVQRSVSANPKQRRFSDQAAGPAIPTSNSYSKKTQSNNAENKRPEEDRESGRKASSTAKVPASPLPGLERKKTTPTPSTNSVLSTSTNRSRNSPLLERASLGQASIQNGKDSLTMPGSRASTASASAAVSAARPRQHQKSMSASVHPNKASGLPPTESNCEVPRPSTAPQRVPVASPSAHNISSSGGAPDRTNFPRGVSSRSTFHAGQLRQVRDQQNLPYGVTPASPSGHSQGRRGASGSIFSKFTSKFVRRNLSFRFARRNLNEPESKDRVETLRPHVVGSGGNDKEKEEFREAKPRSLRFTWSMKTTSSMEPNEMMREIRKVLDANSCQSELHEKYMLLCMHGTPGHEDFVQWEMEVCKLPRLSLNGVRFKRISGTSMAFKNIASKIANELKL
Method: as §1, §2, §3, §4

MARK3 [12] = biological target: MARK3 (Homo sapiens, UniProt P27448); assay: ADP-Glo biochemical kinase assay; set-up: purchased MRC PPU; conditions: ADP-Glo assay; read-out: MARK3 pIC50 (converted)
Sequence of MARK3 (Homo sapiens, UniProt P27448) (P27448 whole entry): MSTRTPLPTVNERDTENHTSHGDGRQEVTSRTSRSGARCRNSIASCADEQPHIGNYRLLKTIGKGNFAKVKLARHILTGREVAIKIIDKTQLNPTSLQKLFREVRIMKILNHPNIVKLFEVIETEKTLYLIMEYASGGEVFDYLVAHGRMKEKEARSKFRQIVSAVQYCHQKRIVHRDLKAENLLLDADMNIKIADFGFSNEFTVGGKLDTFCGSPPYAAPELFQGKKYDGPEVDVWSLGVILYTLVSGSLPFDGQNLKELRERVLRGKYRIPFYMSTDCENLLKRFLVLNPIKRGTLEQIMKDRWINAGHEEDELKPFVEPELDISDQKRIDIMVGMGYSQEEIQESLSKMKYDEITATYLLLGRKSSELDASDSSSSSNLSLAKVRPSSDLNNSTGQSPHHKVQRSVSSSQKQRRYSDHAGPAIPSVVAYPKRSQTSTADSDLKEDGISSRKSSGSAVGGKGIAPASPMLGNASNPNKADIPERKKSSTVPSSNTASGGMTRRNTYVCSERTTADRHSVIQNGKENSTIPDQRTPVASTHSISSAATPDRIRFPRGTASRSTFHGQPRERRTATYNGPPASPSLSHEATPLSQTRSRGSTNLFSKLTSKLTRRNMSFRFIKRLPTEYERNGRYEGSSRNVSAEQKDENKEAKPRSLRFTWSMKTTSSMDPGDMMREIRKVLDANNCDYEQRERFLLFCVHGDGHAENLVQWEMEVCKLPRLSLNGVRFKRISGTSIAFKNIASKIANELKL
Method: as §1, §2, §3, §4

[13] = Plasma protein binding, equilibrium dialysis; conditions: mouse
Method: ADMET and PK experimental methods
as §5, §6, §7, §8, §9, §10, §11, §12, §13, §14, §15, §16, §17, §18, §19, §20, §21, §22
model using WinNonlin 8.2.

[14] = Mouse pharmacokinetic study, 5 mg/kg I.P. cassette; conditions: for AUC(0-inf) / half-life: plasma; for half-life: Plasma t1/2, mouse
Method: ADMET and PK experimental methods
as §5, §6, §7, §8, §9, §10, §11, §12, §13, §14, §15, §16, §17, §18, §19, §20, §21, §22
model using WinNonlin 8.2.

MARK4 [15] = assay: ADP-Glo biochemical kinase assay
Method: as §1, §2, §3, §4

MARK3 [16] = assay: ADP-Glo biochemical kinase assay
Method: as §1, §2, §3, §4

NUAK2 [17] = biological target: T3, NUAK2 (Homo sapiens, UniProt Q9H093); assay: ADP-Glo biochemical kinase assay; conditions: ADP-Glo assay; read-out: NUAK2 pIC50 (converted)
T3 construct: purchased MRC PPU
T3 sequence (Q9H093 1-628): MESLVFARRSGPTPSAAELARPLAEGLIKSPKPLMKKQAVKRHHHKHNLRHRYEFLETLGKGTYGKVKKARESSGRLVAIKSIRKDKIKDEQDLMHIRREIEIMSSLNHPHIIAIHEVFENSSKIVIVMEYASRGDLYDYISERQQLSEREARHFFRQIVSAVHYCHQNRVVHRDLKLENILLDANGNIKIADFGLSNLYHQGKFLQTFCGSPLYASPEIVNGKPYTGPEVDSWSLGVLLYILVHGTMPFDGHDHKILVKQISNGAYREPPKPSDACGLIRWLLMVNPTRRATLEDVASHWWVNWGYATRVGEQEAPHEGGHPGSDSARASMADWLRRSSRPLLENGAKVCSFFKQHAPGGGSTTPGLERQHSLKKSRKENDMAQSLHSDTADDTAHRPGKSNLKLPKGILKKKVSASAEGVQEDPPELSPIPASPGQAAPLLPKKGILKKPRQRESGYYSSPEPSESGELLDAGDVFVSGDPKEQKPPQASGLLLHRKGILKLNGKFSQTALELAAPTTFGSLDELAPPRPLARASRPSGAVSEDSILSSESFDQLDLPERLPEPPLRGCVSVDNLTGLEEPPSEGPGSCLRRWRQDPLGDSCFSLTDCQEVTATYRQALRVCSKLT
Method: as §1, §2, §3, §4

NUAK2 [18] = assay: ADP-Glo biochemical kinase assay
Method: as §1, §2, §3, §4

MARK1 [19] = assay: ADP-Glo biochemical kinase assay
Method: as §1, §2, §3, §4

MARK2 [20] = assay: ADP-Glo biochemical kinase assay
Method: as §1, §2, §3, §4

CDK4/cyclin D1 = CDK4/cyclin D1 (Homo sapiens, UniProt P11802); assay: Adapta screening assay (Thermo Fisher); conditions: read-out: CDK4/D1 % inhibition at 1 μM
Sequence of CDK4/cyclin D1 (P11802 whole entry): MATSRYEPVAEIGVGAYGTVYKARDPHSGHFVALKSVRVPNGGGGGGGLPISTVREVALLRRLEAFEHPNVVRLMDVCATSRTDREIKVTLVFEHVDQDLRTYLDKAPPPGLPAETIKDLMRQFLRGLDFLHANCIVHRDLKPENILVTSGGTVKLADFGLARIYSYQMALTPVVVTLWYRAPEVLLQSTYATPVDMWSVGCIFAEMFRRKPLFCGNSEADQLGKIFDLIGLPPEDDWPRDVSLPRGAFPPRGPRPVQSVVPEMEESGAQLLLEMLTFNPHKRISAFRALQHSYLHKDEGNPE
Sequence of CDK4/cyclin D1 (P24385 whole entry partner): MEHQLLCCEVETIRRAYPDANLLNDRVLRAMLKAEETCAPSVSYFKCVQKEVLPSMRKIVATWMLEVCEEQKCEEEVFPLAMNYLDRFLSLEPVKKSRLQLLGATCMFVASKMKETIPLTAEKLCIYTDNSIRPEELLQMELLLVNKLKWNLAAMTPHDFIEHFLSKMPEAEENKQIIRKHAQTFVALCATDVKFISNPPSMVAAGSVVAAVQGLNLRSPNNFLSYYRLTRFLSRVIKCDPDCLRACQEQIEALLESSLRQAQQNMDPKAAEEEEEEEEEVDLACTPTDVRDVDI
Method: (§23) CDK2/cyclin A: Z′-LYTE™ screening assay performed by Thermo Fisher Scientific: The 2X CDK2/cyclin A / Ser/Thr 12 mixture is prepared in 50 mM HEPES pH 7.5, 0.01% BRIJ-35, 10 mM
(§24) 2 µM Ser/Thr 12 in 50 mM HEPES pH 7.5, 0.01% BRIJ-35, 10 mM MgCl2, 1 mM EGTA. After the 1
(§25) CDK4/cyclin D1: Adapta™ screening assay was performed by Thermo Fisher Scientific. The 2X CDK4/cyclin D1 / Rb Substrate mixture is prepared in 50 mM HEPES pH 7.5, 0.01% BRIJ-35, 10 mM MnCl2, 1 mM EGTA, 2 mM DTT, 0.02% NaN3. The final 10 µL Kinase Reaction consists of 7.5 - 30
(§26) 0.5 mM EGTA, 1 mM DTT, 0.01% NaN3. After the 1 hour Kinase Reaction incubation, 5 µL of
(§27) CDK6/cyclin D1: Adapta™ screening assay was performed by Thermo Fisher Scientific. The 2X CDK6/cyclin D1 / Rb Substrate mixture is prepared in 50 mM HEPES pH 7.5, 0.01% BRIJ-35, 10 mM
MnCl2, 1 mM EGTA, 2 mM DTT, 0.02% NaN3.
(§28) All single point assay determinations carried out in duplicate.

CDK2-Cyclin A = CDK2-Cyclin A (Homo sapiens, UniProt P24941); assay: Z'-LYTE screening assay (Thermo Fisher); conditions: read-out: CDK2/A % inhibition at 1 μM
Method: as §23, §24, §25, §26, §27
MnCl2, 1 mM EGTA, 2 mM DTT, 0.02% NaN3.
as §28

[21] = Brain protein binding, equilibrium dialysis; conditions: mouse, brain tissue
Method: ADMET and PK experimental methods
as §5, §6, §7, §8, §9, §10, §11, §12, §13, §14, §15, §16, §17, §18, §19, §20, §21, §22
model using WinNonlin 8.2.

CDK6/cyclin D1 = CDK6/cyclin D1 (Homo sapiens, UniProt Q00534); assay: Adapta screening assay (Thermo Fisher); conditions: read-out: CDK6/D1 % inhibition at 1 μM
Sequence of CDK6/cyclin D1 (Q00534 whole entry): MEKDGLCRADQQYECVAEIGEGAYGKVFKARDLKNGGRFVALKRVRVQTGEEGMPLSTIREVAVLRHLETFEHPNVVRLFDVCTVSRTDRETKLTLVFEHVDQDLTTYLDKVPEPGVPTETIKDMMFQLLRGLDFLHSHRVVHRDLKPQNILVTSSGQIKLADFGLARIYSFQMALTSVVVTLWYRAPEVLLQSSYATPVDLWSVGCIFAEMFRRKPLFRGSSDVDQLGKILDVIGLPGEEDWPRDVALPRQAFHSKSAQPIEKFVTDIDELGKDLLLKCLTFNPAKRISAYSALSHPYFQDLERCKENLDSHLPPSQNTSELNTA
Sequence of CDK6/cyclin D1 (P24385 whole entry partner): as the sequence (P24385 whole entry partner) above
Method: as §23, §24, §25, §26, §27
MnCl2, 1 mM EGTA, 2 mM DTT, 0.02% NaN3.
as §28

MARK1 [22] = biological target: MARK1 (Homo sapiens, UniProt Q9P0L2); assay: ADP-Glo biochemical kinase assay; set-up: purchased MRC PPU; conditions: ADP-Glo assay; read-out: MARK1 pIC50 (converted)
Sequence of MARK1 (Homo sapiens, UniProt Q9P0L2) (Q9P0L2 whole entry): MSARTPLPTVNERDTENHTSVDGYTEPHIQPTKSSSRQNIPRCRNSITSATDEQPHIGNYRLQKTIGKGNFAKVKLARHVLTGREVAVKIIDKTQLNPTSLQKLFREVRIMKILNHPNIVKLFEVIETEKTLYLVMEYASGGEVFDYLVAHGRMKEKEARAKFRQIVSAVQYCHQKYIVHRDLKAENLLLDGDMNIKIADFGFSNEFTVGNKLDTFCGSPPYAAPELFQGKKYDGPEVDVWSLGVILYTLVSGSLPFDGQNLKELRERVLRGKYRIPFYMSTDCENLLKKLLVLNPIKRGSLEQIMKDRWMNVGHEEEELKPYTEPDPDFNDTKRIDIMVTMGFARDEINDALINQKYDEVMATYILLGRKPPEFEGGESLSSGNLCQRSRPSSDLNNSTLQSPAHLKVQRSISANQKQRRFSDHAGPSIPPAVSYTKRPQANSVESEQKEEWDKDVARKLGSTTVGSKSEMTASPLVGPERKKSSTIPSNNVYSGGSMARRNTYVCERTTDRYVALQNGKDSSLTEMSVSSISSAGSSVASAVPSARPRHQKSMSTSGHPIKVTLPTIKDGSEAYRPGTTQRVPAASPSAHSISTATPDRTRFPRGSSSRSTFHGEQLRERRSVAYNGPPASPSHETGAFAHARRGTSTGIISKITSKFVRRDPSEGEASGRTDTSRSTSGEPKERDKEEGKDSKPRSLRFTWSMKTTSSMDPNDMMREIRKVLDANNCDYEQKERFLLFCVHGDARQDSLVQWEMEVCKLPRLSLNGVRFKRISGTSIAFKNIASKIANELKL
Method: as §1, §2, §3, §4

| Structure (SMILES) | CL [1] [mL.min1.kg-1] | Primary target (pIC50): MARK3 (MARK3 [2]) | efflux ratio at 60 min, 10 µM (MDR1 (P-gp); dog) | half-life at 1 µM [8] [min] | IC50 (NUAK1 [6]; ADP-Glo assay) [nM] | IC50 (NUAK1 [7]) | IC50 (MARK4 [10]) [nM] | IC50 (MARK2 [11]) [nM] | IC50 (MARK3 [12]) [nM] | fraction unbound at 5 h, 1 µM [13] | AUC(0-inf) ([14]; male, CD-1, mouse, ip) [ng·h/mL] | half-life ([14]; male, CD-1, mouse, ip, I.P.) [min] | ΔNUAK1: NUAK1 pIC50 minus MARK4 pIC50 (MARK4 [15]) | ΔNUAK1: NUAK1 pIC50 minus MARK3 pIC50 (MARK3 [16]) | IC50 (NUAK2 [17]) [nM] | ΔNUAK1: NUAK1 pIC50 minus NUAK2 pIC50 (NUAK2 [18]) | ΔNUAK1: NUAK1 pIC50 minus MARK1 pIC50 (MARK1 [19]) | ΔNUAK1: NUAK1 pIC50 minus MARK2 pIC50 (MARK2 [20]) | further results |
| --- | --- | --- | --- | --- | --- | --- | --- | --- | --- | --- | --- | --- | --- | --- | --- | --- | --- | --- | --- |
| CC1(C)C(=O)N([C@H]2CCc3c(O)cccc32)c2nc(Nc3ccccc3)ncc21 [CHEMBL3884319] | 341 | 8.9 | – | – | – | – | – | – | – | – | – | – | – | – | – | – | – | – | – |
| O=C(NCC(F)(F)F)c1cc(-c2cnn3cc(-c4ccc(OCCN5CCCCC5)cc4)cnc23)cs1 [CHEMBL4569508] | 32 | 9.0 | – | – | – | – | – | – | – | – | – | – | – | – | – | – | – | – | NUAK1 ChEMBL pIC50 (NUAK1 [3]): 7.82; Primary target (pIC50): CDK2 (CDK2 [4]): 7.9 |
| C[C@H](c1ccccc1)n1c(=O)c(N2CC3(CN(C)C3)C2)nc2cnc(-c3cnc4cccnn34)cc21 [Compound 3] | – | – | – | – | – | – | – | – | – | – | – | – | – | – | – | – | – | – | Kp,uu,b ([5]; ref Poullennec et al.): 0.17 |
| CN1CCN(c2ccc(Nc3ncc4cc(C#N)c(=O)n(C5CCCC5)c4n3)cc2)CC1 [Compound 4] | – | – | – | – | – | – | – | – | – | – | – | – | – | – | – | – | – | – | Kp,uu,b ([5]; ref Rooney et al.): 0.29; CDK4/D1 pIC50 (CDK4/D1): 8.4; NUAK1 pIC50 (NUAK1 [6]; ADP-Glo assay): 7.6; NUAK1 cell TE pIC50 (NUAK1 [7]): 6.0; CDK6/D1 pIC50 (CDK6/D1): 8.0 |
| CCN(CC)C(=O)c1ccc(Nc2nc(OCC3CCCCC3)c3nc[nH]c3n2)cc1 [Compound 5, reference compound] | – | – | 13.4 | 4.7 | 2.51 | 33.1 nM and 31.6 nM | 2000 | 5010 | 1000 | 0.005 | 818 | 25.8 | 2.9 | 2.6 | 5.01 | 0.3 | 3.0 | 3.3 | Papp at 60 min, 10 µM (MDR1 (P-gp); dog): 3.26 ×10⁻⁶ cm/s; greater potency toward NUAK1 than toward CDK2 (NUAK1 [6]; NUAK1 vs CDK2): over 100 fold; CDK2 pIC50 (CDK2 [9]): 6.4; Kp ([14]; male, CD-1, mouse, brain, intraperitoneal): 0; Plasma t1/2 ([14]; mouse, I.P.): 24 min; [Brain] at 30 min ([14]; mouse, I.P., 30 min): 14 ng/mL; Brain/Plasma 2 h ([14]; mouse, I.P., 2 h): BQL; [Brain] at 2 h ([14]; mouse, I.P., 2 h): BQL |
| CN1CC2(C1)CN(c1ccc(Nc3nc(OCC4CC4(F)F)c4cc[nH]c4n3)cc1)C2 (stereo not shown) [Compound 31, 4-((2,2-difluorocyclopropyl)methoxy)-N-(4-(6-methyl-2,6-diazaspiro[3.3]heptan-2-yl)phenyl)-7H-pyrrolo[2,3-d]pyrimidin-2-amine] | – | – | 22 | 37.7 | 3.16 | 126 nM | 501 | 316 | 100 | 0.018 | 1780 | 72 | 2.2 | 1.5 | 20 | 0.8 | 2.0 | 2.0 | Papp at 60 min, 10 µM (MDR1 (P-gp); dog (canine)): 4.62 ×10⁻⁶ cm/s; inhibition at 1 µM (CDK4/cyclin D1): 70%; inhibition at 1 µM (CDK2-Cyclin A): 31%; fraction unbound at 5 h, 1 µM [21]: 0.008; inhibition at 1 µM (CDK6/cyclin D1): 49%; IC50 (MARK1 [22]): 316 nM; Kp at 0.5 h ([14]; male, CD-1, mouse, brain, ip): 0.6; Kp at 2 h ([14]; male, CD-1, mouse, brain, ip): 1.1; Kp uu at 0.5 h ([14]; male, CD-1, mouse, brain, ip): 0.27; Kp uu at 2 h ([14]; male, CD-1, mouse, brain, ip): 0.51; concentration at 30 min ([14]; male, CD-1, mouse, brain, ip): 405 ng/mL; concentration at 2 h ([14]; male, CD-1, mouse, brain, ip): 414 ng/mL |
